Laboratory results: US6596687B1, “Cell adhesion inhibitors” (Biogen, Inc., priority 1995, dated 2003)
Numbered stars: 1 amine (or outer) side, 2 acyl side, 3 side chain; on linkers, the order of the positions; unused ones are H or OH. Square brackets hold non-standard residues; d marks the D form. Peptide text beside a SMILES is read from it. * marks the point of attachment. X3 = COc1cc(CC(=O)[*:2])ccc1N[*:1]; Boc = CC(C)(C)OC(=O)*; CO = O=C([*:1])[*:2]; NHBn = c1ccc(CN*)cc1; NHPh = c1ccc(N*)cc1

Target: T1, VLA4 (Homo sapiens, UniProt P05556+P13612)
T1 construct: endogenous in cells; host or cells: Ramos cells
T1 sequence (P13612 34-1032): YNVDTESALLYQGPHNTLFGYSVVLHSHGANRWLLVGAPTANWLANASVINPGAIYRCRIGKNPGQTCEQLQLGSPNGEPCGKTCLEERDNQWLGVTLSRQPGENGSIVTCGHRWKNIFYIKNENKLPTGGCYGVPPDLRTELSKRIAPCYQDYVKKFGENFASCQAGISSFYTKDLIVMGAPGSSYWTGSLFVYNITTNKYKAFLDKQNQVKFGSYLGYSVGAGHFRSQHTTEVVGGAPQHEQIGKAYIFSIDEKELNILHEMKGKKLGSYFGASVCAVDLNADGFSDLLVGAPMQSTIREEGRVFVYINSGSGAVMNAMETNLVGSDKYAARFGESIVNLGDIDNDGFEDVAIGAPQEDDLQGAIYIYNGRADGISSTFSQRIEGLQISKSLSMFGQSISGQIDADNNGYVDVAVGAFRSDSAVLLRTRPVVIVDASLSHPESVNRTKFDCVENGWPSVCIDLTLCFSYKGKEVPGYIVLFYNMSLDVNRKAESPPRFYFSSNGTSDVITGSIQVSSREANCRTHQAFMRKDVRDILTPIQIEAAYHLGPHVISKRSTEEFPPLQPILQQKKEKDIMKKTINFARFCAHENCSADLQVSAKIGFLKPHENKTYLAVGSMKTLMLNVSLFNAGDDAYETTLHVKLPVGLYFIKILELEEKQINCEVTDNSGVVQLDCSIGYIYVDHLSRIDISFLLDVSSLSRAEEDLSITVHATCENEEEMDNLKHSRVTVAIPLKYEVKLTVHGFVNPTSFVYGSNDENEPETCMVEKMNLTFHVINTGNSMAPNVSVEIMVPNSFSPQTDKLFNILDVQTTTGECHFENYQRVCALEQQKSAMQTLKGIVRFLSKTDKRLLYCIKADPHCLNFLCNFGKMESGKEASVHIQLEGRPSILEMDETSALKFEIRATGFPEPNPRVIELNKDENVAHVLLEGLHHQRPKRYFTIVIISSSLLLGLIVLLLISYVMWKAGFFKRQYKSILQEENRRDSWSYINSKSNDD
T1 sequence (P05556 21-798): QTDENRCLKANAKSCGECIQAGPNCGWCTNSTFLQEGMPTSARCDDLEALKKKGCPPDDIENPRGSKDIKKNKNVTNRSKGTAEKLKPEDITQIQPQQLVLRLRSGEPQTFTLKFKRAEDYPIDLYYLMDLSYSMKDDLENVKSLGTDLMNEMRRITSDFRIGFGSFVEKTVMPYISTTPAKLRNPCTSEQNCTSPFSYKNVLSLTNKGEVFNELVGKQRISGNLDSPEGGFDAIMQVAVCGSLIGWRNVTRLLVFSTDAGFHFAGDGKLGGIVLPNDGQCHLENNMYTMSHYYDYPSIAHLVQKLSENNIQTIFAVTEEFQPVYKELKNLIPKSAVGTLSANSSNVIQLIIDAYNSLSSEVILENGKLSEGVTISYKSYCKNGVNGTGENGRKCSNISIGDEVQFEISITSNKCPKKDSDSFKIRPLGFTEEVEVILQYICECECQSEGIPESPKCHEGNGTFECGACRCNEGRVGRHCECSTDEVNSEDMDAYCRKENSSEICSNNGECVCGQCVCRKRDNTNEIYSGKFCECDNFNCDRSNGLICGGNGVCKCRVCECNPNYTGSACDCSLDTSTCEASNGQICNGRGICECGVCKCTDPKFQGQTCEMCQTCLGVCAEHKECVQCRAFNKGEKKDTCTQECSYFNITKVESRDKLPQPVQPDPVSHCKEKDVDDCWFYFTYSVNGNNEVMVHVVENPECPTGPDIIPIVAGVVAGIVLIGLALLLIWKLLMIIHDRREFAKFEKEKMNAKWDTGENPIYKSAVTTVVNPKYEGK
Assay: Inhibition of VLA4-dependent adhesion of Ramos cells to BSA-CS1
Type: cell-based
Settings: Ramos cells, BSA-CS1 coated wells, 2 mM MnCl2, 30 minutes at room temperature; read-out: IC50
From the text: For example, the cell adhesion inhibitory activity of these compounds may be measured by determining the concentration of inhibitor required to block the binding of VLA-4-expressing cells to fibronectin- or CS1-coated plates. In this assay microtiter wells are coated with either fibronectin (containing the CS1-sequence) or CS-1. If CS-1 is used, it must be conjugated to a carrier protein, such as bovine serum albumin, in order to bind to the wells. Once the wells are coated, varying concentrations of the test compound are then added together with appropriately labelled, VLA-4-expressing cells. Alternatively, the test compound may be added first and allowed to incubate with the coated wells prior to the addition of the cells. The cells are allowed to incubate in the wells for at least 30 minutes. Following incubation, the wells are emptied and washed. Inhibition of binding is measured by quantitating the fluorescence or radioactivity bound to the plate for each of the various concentrations of test compound, as well as for controls containing no test compound.
VLA-4-expressing cells that may be utilized in this assay include Ramos cells, Jurkat cells, A375 melanoma cells, as well as human peripheral blood lymophocytes (PBLs). The cells used in this assay may be fluorescently or radioactively labelled.
This assay was used to assess the potency of VLA4-directed inhibitory compounds of this invention. 1.
We dissolved BSA-SMCC (Pierce Chemical, Rockford, Ill.; Catalog #77115) in H2O at a concentration of 10 mg/mL. [SEQ ID NO:4]: […](“Cys-Tyr-CS1 peptide”), which we synthesized by conventional solid phase chemistry and purified by HPLC, was dissolved in 10 mM HEPES pH 5, 50 mM NaCl and 0.1 mM EDTA also at a concentration of 10 mg/mL. We then mixed 500 μL of BSA-SMCC, 250 μL of Cys-Tyr-CS1 peptide and 75 μL of 1 mM HEPES pH 7.5 and allowed the conjugation reaction to proceed for 30 minutes. We stopped the reaction by adding 1 μL of beta-mercaptoethanol. Samples were analyzed for cross-linking by SDS-PAGE.
We coated the wells of a Linbro titertek polystyrene 96-well flat bottom plate (Flow Laboratories, Maclean, Va.; catalog #76-231-05) with 100 μL of the above-described BSA-CS1 solution diluted to 1 μg/mL in 0.05 M NaHCO3 (15 mM NaHCO3, 35 mM Na2CO3) pH 9.2. Some wells were not coated with CS1 in order to assess non-specific cell binding (NSB). The plate was then incubated overnight at 4° C.
Following this incubation, the contents of the wells were removed by inverting and blotting the plate. All of the wells were then blocked with 100 μL of 1% BSA in PBS, 0.02% NaN3, for a minimum of one hour at room temperature.
Ramos cells are grown, maintained and labelled in RPMI 1640 culture medium containing 1% BSA. Just prior to running the assay, we added 2′, 7′-bis-(2-carboxyethyl)-5(and -6)carboxyfluorescein acetoxymethyl ester (“BCECF-AM”; Molecular Probes Inc., Eugene, Oregon; catalog #B-1150) to a final concentration of 2 μM to a culture of Ramos cells (4×10^6 cells/mL). We incubated the cells for 20 minutes at 37° C.
Following labelling, the cells were washed twice in assay buffer (24 mM TRIS, 137 mM NaCl, 2.7 mM KCl, pH 7.4, containing 0.1 BSA and 2mM glucose) to remove any cations originating from the culture medium. The cells were then resuspended in assay buffer to 4×10^6 cells/mL and 2 mM MnCl2 was added to upregulate VLA4 on the surface of the cells.
Immediately prior to running the assay, we removed the BSA blocking solution from the 96-well plates and washed the wells with 100 μL of assay buffer. We then added to each well 25 μL of test cell adhesion inhibitory compound at 2×the final concentration and 25 μL of the labelled Ramos cells. […] Each concentration of compound was tested in triplicate. The compound and cells are allowed to incubate for 30 minutes at room temperature.

Row | Compound | IC50 [µM]
1 | COc1cc(CC(=O)N[C@@H](CC(C)C)C(=O)N[C@@H](CC(=O)O)C(=O)N[C@H](C(=O)N2CCC[C@H]2C(=O)O)C(C)C)ccc1NC(=O)Nc1ccccc1 [Compound 1] ({NHPh-CO}-[X3]LDVP-OH) | < 0.05
2 | COc1cc(CC(=O)N[C@@H](CCSC)C(=O)N[C@@H](CC(=O)O)C(=O)N[C@H](C(=O)N2CCC[C@H]2C(=O)O)C(C)C)ccc1NC(=O)Nc1ccccc1 [Compound 2] ({NHPh-CO}-[X3]MDVP-OH) | < 0.05
3 | COc1nc(CC(=O)N[C@@H](CC(C)C)C(=O)N[C@@H](CC(=O)O)C(=O)N[C@H](C(N)=O)C(C)C)ccc1NC(=O)Nc1ccccc1C [Compound 3] | < 0.05
4 | CC(C)C[C@H](NC(=O)c1cc2ccccc2cn1)C(=O)N[C@@H](CCC(=O)O)C(=O)N[C@H](C(=O)O)C(C)C [Compound 5] | > 10
5 | CC(C)C[C@H](NC(=O)c1cc2ccccc2cn1)C(=O)N[C@@H](CO)C(=O)N[C@H](C(=O)O)C(C)C [Compound 7] | > 10
6 | CC(C)C[C@H](NC(=O)c1cc2ccccc2cn1)C(=O)N[C@@H](CS)C(=O)N[C@H](C(=O)O)C(C)C [Compound 9] | > 10
7 | CC(C)C[C@H](NC(=O)c1cc2ccccc2cn1)C(=O)N[C@@H](CC(=O)O)C(=O)O [Compound 12] | > 10
8 | CC(C)CNC(=O)[C@@H](CC(=O)O)NC(=O)[C@H](CC(C)C)NC(=O)CCc1ccc(O)cc1 [Compound 15] | > 10
9 | CCC(C)C(NC(=O)CCc1ccc(O)cc1)C(=O)NC(CC(=O)O)C(=O)NCC(C)C (stereo not drawn) [Compound 17] | > 10
10 | COC(=O)[C@@H](NC(=O)[C@H](CC(=O)O)NC(=O)[C@H](CC(C)C)N(C)C(=O)CCc1ccc(O)cc1)C(C)C [Compound 18] | 0.05 to 10
11 | COC(=O)[C@@H](NC(=O)[C@H](CC(=O)O)NC(=O)[C@H](CC(C)C)NC(=O)CCc1ccc(O)cc1)C(C)C [Compound 19] | > 10
12 | COC(=O)[C@H](C(C)C)N(C)C(=O)[C@H](CC(=O)O)NC(=O)[C@H](CC(C)C)NC(=O)CCc1ccc(O)cc1 [Compound 20] | > 10
13 | COC(=O)[C@@H](NC(=O)[C@H](CC(=O)O)N(C)C(=O)[C@H](CC(C)C)NC(=O)CCc1ccc(O)cc1)C(C)C [Compound 22] | > 10
14 | CC(C)C[C@H](NC(=O)C1Cc2ccccc2CN1)C(=O)N[C@@H](CC(=O)O)C(=O)O (stereo partly drawn) [Compound 23] (HELM PEPTIDE1{[O=C(C1Cc2ccccc2CN1)[*:2]].L.D}$$$$V2.0) | > 10
15 | COC(=O)[C@@H](NC(=O)[C@H](CC(=O)O)NC(=O)[C@H](CC(C)C)N(Cc1ccccc1)C(C)=O)C(C)C [Compound 28] | > 10
16 | COC(=O)[C@@H](NC(=O)[C@H](CC(=O)O)NC(=O)[C@H](CC(C)C)N(CCc1ccccc1)C(C)=O)C(C)C [Compound 29] | > 10
17 | COC(=O)[C@@H](NC(=O)[C@H](CC(=O)O)NC(=O)[C@H](CC(C)C)N(CCc1ccccc1)C(=O)CCc1ccccc1)C(C)C [Compound 30] | > 10
18 | CC(C)C[C@H](NC(=O)C1Cc2ccccc2CN1)C(=O)N[C@@H](CCC(=O)O)C(=O)N[C@H](C(=O)O)C(C)C (stereo partly drawn) [Compound 31] (HELM PEPTIDE1{[O=C(C1Cc2ccccc2CN1)[*:2]].L.E.V}$$$$V2.0) | > 10
19 | CC(C)C[C@H](NC(=O)c1cc2ccccc2cn1)C(=O)N[C@@H](CC(=O)O)C(=O)N[C@H](C(=O)N1CCC[C@H]1C(=O)O)C(C)C [Compound 32] | > 10
20 | CC(C)C[C@H](NC(=O)Cc1ccccc1)C(=O)N[C@@H](CC(=O)O)C(=O)N[C@H](C(=O)N1CCC[C@H]1C(=O)O)C(C)C [Compound 34] | 0.05 to 10

Row | Compound | IC50 [µM]
21 | COC(=O)[C@@H]1CCCN1C(=O)[C@@H](NC(=O)[C@H](CC(=O)O)NC(=O)[C@H](CC(C)C)NC(=O)Cc1ccccc1)C(C)C [Compound 35] | 0.05 to 10
22 | CC(C)C[C@H](NC(=O)CCc1ccccc1)C(=O)N[C@@H](CC(=O)O)C(=O)N[C@H](C(=O)N1CCC[C@H]1C(=O)O)C(C)C [Compound 36] | > 10
23 | COC(=O)[C@@H]1CCCN1C(=O)[C@@H](NC(=O)[C@H](CC(=O)O)NC(=O)[C@H](CC(C)C)NC(=O)CCc1ccccc1)C(C)C [Compound 37] | > 10
24 | CC(C)C[C@H](NC(=O)CCc1ccc(O)cc1)C(=O)N[C@@H](CC(=O)O)C(=O)N[C@H](C(=O)N1CCC[C@H]1C(=O)O)C(C)C [Compound 38] | > 10
25 | COC(=O)[C@@H]1CCCN1C(=O)[C@@H](NC(=O)[C@H](CC(=O)O)NC(=O)[C@H](CC(C)C)NC(=O)OC(C)(C)C)C(C)C [Compound 40] | > 10
26 | COC(=O)[C@@H]1CCCN1C(=O)[C@@H](NC(=O)[C@H](CC(=O)O)NC(=O)[C@H](CC(C)C)NC(=O)c1ccc2ccccc2n1)C(C)C [Compound 41] | 0.05 to 10
27 | CC(C)CC(NC(=O)Cc1ccccc1)C(=O)NC(CC(=O)O)C(=O)NC(C(=O)N1CCCCC1C(=O)O)C(C)C (stereo not drawn) [Compound 42] | 0.05 to 10
28 | CNC(=O)[C@@H](NC(=O)[C@H](CC(=O)O)NC(=O)[C@H](CC(C)C)N(C)C(=O)Cc1ccc(OC)cc1)C(C)C [Compound 45] | > 10
29 | CNC(=O)[C@@H](NC(=O)[C@H](CC(=O)O)NC(=O)[C@H](CC(C)C)N(C)C(=O)CCc1ccc(O)cc1)C(C)C [Compound 46] | > 10
30 | CNC(=O)[C@@H](NC(=O)[C@H](CC(=O)O)NC(=O)[C@H](CC(C)C)NC(=O)NCc1ccccc1)C(C)C [Compound 47] ({NHBn-CO}-Leu-Asp-Val-NHMe) | > 10
31 | CNC(=O)[C@@H](NC(=O)[C@H](CC(=O)O)NC(=O)[C@H](CC(C)C)NC(=O)Nc1ccc(C)cc1)C(C)C [Compound 48] | > 10
32 | CNC(=O)[C@@H](NC(=O)[C@H](CC(=O)O)NC(=O)[C@H](CC(C)C)NC(=O)c1ccc2ccccc2n1)[C@@H](C)OC [Compound 59] | 0.05 to 10
33 | CC(C)C[C@H](NC(=O)c1ccc2ccccc2n1)C(=O)N[C@@H](CC(=O)O)C(=O)N[C@H](C(=O)NC(C)(C)C)[C@@H](C)O [Compound 60] | > 10
34 | CC(C)C[C@H](NC(=O)c1ccc2ccccc2n1)C(=O)N[C@@H](CC(=O)O)C(=O)N[C@H](C(=O)N1CCOCC1)[C@@H](C)O [Compound 61] | 0.05 to 10
35 | CC(C)C[C@H](NC(=O)OC(C)(C)C)C(=O)N[C@@H](CC(=O)O)C(=O)N[C@H](C(=O)NC(C)(C)C)[C@@H](C)O [Compound 62] (HELM PEPTIDE1{[CC(C)(C)OC(=O)[*:2]].L.D.T.[CC(C)(C)N[*:1]]}$$$$V2.0) | > 10
36 | CC(C)C[C@H](NC(=O)C1(NC(=O)OC(C)(C)C)CCc2ccccc2C1)C(=O)N[C@@H](CC(=O)O)C(=O)N[C@H](C(=O)O)C(C)C (stereo partly drawn) [Compound 63] (HELM PEPTIDE1{[CC(C)(C)OC(=O)[*:2]].[O=C(C1(N[*:1])CCc2ccccc2C1)[*:2]].L.D.V}$$$$V2.0) | > 10
37 | CC(C)C[C@H](NC(=O)CCc1ccccc1)C(=O)N[C@@H](CC(=O)O)C(=O)N[C@H](C(=O)O)C(C)C [Compound 64] (HELM PEPTIDE1{[O=C(CCc1ccccc1)[*:2]].L.D.V}$$$$V2.0) | > 10
38 | CC(C)C[C@H](NC(=O)C(Cc1ccc(O)cc1)N(S(C)(=O)=O)S(C)(=O)=O)C(=O)N[C@@H](CC(=O)O)C(=O)N[C@H](C(=O)O)C(C)C (stereo partly drawn) [Compound 65] | > 10
39 | CC(C)CC(NC(=O)C(Cc1ccc(O)cc1)NC(=O)OC(C)(C)C)C(=O)NC(CC(=O)O)C(=O)NC(C(=O)O)C(C)C (stereo not drawn) [Compound 66] (Boc-YLDV-OH; configuration not given here) | > 10
